Measurements published in patent publication US20100137260A1, “COMPOUND FOR INHIBITING TRPV3 FUNCTION AND USE THEREOF” (Korea University Industry and Academic Collaboration …, priority 2008, published 2010).

Tested on: HaCat skin cells
Experiment: Artificial wound recovery (cell migration and proliferation) in HaCat cells (FIG. 3)
Format: cell-based
Conditions: 12 hours; for Migration and proliferation of HaCaT cells in medium containing camphor: medium containing 4 mM camphor, IPP 10 μM, FPP 1 μM, GPP 10 μM
Procedure: The present inventors drew lines 1 mm deep on the well fully filled with the cells to make artificial wound. The wounded cells were treated with IPP (10 μM), FPP (1 μM) and GPP (10 μM: geranyl pyrophosphate, Biomol, USA) respectively and incubated in a CO2 incubator for 12 hours. The control group was not-treated. The width of recovered wound was measured under microscope and compared with that at the beginning, which was presented as wound recovery rate. All the experiments were performed on DMEM/FBS. Floating cells, which means dead cells, after making wound, were eliminated by using PBS to eliminate variables caused by dead cells. The cells were observed under microscope (×40), and distance was measured by using image analysis program (Meta-flour 7.1 Molecular Devices, USA).

Row | Structure (SMILES) | Migration and proliferation of HaCat skin cells, compound alone (FPP alone (1 μM)) | Migration and proliferation of HaCaT cells in medium containing camphor
1 | CC(C)=CCC/C(C)=C/CC/C(C)=C/COP(=O)(O)OP(=O)(O)O [FPP] | confirmed the inhibitory effect | inhibitory effect was not observed
2 | CC(C)=CCC/C(C)=C/COP(=O)(O)OP(=O)(O)O [GPP, geranyl pyrophosphate] |  | inhibitory effect was not observed
